Results from patent publication US20260265238A1, “COMPOUNDS AND PHARMACEUTICAL COMPOSITIONS THAT DEGRADE SWI/SNF-RELATED MATRIX-ASSOCIATED ACTIN-DEPENDENT REGULATOR OF CHROMATIN SUBFAMILY A” (Plexium, Inc., priority 2023, published 2026).

Columns and labels:
[1] = target: T1, SMARCA2-HiBiT HeLa cells (protein which is expressed from the SMARCA2 gene) (Homo sapiens, UniProt P51531); assay: SMARCA2 degradation assay (HiBiT-fusion HeLa cell line, 24 h, luminescence); type: cell-based
T1 construct: protein which is expressed from the SMARCA2 and SMARCA4 genes; host or cells: HeLa (SMARCA2-HiBiT engineered line)
T1 sequence (P51531 whole entry, the tested form may be a part): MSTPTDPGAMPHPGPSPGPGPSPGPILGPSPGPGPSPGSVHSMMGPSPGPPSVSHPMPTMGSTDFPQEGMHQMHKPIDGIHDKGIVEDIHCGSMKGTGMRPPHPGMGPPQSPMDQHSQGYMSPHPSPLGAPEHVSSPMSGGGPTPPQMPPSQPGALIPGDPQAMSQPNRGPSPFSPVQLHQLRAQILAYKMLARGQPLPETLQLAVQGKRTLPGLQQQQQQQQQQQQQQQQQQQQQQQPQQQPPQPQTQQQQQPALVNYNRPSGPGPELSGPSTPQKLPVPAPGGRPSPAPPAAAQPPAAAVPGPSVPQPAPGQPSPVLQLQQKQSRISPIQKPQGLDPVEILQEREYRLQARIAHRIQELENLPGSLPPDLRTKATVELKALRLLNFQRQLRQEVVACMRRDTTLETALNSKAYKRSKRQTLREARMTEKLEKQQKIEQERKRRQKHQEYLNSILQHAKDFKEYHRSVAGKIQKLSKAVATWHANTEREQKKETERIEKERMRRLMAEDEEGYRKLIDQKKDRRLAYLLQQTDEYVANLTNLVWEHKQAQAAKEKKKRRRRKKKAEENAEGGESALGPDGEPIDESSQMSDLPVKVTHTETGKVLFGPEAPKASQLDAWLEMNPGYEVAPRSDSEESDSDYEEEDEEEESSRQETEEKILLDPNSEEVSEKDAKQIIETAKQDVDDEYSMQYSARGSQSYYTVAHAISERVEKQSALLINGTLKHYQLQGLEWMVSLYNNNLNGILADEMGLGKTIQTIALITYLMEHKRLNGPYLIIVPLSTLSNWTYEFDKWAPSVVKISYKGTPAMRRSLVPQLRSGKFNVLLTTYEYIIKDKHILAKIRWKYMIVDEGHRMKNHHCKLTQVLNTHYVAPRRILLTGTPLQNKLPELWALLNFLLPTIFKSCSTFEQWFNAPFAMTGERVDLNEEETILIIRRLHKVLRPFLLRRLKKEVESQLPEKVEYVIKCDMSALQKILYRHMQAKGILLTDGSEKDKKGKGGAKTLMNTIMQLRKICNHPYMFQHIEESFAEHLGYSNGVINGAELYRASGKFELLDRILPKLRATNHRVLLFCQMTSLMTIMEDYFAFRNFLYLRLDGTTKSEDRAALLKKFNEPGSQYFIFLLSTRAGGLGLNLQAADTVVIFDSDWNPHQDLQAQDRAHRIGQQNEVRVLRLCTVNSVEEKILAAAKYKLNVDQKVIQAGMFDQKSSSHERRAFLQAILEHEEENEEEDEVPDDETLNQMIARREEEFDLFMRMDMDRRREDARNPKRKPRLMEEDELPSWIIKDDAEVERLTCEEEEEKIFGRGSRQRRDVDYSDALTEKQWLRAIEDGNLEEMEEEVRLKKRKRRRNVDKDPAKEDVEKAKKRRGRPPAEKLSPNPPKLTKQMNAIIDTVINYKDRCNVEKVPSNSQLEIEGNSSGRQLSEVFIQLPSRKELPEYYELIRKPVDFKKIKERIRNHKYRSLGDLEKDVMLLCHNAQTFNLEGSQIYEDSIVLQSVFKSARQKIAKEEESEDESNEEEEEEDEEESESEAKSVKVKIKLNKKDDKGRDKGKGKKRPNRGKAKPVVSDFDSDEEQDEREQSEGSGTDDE
Outline: (§1)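 HiBiT-fusion HeLa lines, 8,000 cells/well, overnight attachment; cpd 10-pt series (typically 10 μM–300 pM), 24 h, 37° C. Lysis with LgBiT + HiBiT substrate, 10 min shaking at RT, luminescence read. DC50 from dose-response fit; % degradation also scored at 1 μM.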

[2] = target: T2, SMARCA4-HiBiT HeLa cells (protein which is expressed from the SMARCA4 gene) (Homo sapiens, UniProt P51532); assay: SMARCA4 degradation assay (HiBiT-fusion HeLa cell line, 24 h, luminescence); type: cell-based
T2 construct: protein which is expressed from the SMARCA2 and SMARCA4 genes; host or cells: HeLa (SMARCA4-HiBiT engineered line)
T2 sequence (P51532 whole entry, the tested form may be a part): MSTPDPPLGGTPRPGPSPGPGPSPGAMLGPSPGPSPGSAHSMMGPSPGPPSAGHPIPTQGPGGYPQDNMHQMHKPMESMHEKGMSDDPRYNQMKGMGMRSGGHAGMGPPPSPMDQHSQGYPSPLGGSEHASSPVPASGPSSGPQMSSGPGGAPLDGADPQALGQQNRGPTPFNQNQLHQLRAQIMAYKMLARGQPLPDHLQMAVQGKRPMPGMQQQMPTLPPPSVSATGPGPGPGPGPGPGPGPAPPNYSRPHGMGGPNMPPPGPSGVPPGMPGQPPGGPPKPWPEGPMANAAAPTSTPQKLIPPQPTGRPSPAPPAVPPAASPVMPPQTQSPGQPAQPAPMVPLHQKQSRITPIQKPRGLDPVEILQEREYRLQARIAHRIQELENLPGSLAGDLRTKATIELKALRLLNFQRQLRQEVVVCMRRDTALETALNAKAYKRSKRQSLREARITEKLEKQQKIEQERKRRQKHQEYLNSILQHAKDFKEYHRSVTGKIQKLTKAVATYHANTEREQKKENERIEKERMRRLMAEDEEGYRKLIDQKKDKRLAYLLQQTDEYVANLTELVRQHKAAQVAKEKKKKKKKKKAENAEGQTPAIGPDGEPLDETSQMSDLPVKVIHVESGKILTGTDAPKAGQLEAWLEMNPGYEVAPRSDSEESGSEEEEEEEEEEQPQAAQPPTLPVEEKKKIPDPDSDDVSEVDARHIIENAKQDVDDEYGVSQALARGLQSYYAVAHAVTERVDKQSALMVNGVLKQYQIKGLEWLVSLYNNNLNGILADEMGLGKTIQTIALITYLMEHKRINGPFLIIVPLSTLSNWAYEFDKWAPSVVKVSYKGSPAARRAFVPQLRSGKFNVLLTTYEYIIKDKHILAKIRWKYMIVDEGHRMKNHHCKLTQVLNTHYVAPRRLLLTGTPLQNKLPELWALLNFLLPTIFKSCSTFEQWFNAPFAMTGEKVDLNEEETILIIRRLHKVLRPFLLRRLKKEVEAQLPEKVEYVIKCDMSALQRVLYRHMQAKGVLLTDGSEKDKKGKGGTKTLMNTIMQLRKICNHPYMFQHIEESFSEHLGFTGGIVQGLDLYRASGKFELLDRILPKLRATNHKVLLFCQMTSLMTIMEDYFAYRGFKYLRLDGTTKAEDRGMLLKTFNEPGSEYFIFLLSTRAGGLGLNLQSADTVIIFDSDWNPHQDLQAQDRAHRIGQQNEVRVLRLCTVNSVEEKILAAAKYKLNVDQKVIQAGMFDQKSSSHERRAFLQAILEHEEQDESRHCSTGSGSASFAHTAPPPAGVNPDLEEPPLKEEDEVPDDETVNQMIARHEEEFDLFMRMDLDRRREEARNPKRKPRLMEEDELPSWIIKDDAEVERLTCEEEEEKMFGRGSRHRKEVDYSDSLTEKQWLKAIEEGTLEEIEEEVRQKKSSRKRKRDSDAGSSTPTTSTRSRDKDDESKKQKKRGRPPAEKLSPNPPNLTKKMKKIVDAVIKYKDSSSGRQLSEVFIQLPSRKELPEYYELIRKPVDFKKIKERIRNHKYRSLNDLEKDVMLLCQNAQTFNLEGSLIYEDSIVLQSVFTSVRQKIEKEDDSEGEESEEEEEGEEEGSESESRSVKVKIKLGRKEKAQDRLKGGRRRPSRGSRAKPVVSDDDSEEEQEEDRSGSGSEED
Outline: as §1

Row | DC50 [1] [µM] | SMARCA2 % Degradation @ 1 μM ([1]; @ 1 μM) | DC50 [2] [µM] | inhibition at 1 µM ([2]; @ 1 μM) [%] | SMARCA2 % Degradation @ 1 μM ([1]; 1 μM) | inhibition at 1 µM ([2]; 1 μM) [%] | SMILES
1 | 0.05 to 0.5 | ++ (++=30-70%) | < 0.05 | < 30 |  |  | C[C@@H]1CCN(c2cc(-c3ccccc3O)nnc2N)CCN1c1ccnc(C#CCN2CC[C@H]2CF)n1 [Compound P-263, o-{5-[(R)-4-(2-{3-[(S)-2-(fluoromethyl)-1-azetidinyl]-1-propynyl}-4-pyrimidinyl)-5-methyl-1,4-diazepan-1-yl]-6-amino-3-pyridazinyl}phenol]
2 | 0.05 to 0.5 | ++ (++=30-70%) | 0.05 to 0.5 | 30 to 70 |  |  | Nc1nnc(-c2ccccc2O)cc1N1CC2CN(c3ccnc(C#CCNC(=O)c4cc5ncccn5n4)n3)CC2C1 (stereo not drawn) [Compound P-41, N-(3-(4-(5-(3-amino-6-(2-hydroxyphenyl)pyridazin-4-yl)hexahydropyrrolo[3,4-c]pyrrol-2(1H)-yl)pyrimidin-2-yl)prop-2-yn-1-yl)pyrazolo[1,5-a]pyrimidine-2-carboxamide]
3 | < 0.05 | ++ (++=30-70%) | 0.05 to 0.5 | < 30 |  |  | C[C@@H]1CCN(c2cc(-c3ccccc3O)nnc2N)CCN1c1ccnc(C#CCN2[C@H](C)COC[C@@H]2C)n1 [Compound P-260, o-{5-[(R)-4-(2-{3-[(3R,5S)-3,5-dimethyl-4-morpholiny1]-1-propynyl}-4-pyrimidinyl)-5-methyl-1,4-diazepan-1-yl]-6-amino-3-pyridaziny1}phenol]
4 | 0.05 to 0.5 |  | 0.05 to 0.5 |  | ++ (++=30-70%) | < 30 | CN(C)CC#Cc1cc(OC2CCN(c3cc(-c4ccccc4O)nnc3N)CC2)ccn1 [Compound P-384, 0-[6-amino-5-(4-{2-[3-(dimethylamino)-1-propynyl]-4-pyridyloxy}-1-piperidyl)-3-pyridazinyl]phenol]
5 | 0.05 to 0.5 | +++ (+++=>70%) | 0.05 to 0.5 | 30 to 70 |  |  | Nc1nnc(-c2ccccc2O)cc1N1CCCN(c2ccnc(C#CCN3CCn4nccc4C3)n2)CC1 [Compound P-146, 2-(6-amino-5-(4-(2-(3-(6,7-dihydropyrazolo[1,5-a]pyrazin-5(4H)-yl)prop-1-yn-1-yl)pyrimidin-4-yl)-1,4-diazepan-1-yl)pyridazin-3-yl)phenol]
6 | 0.05 to 0.5 |  | 0.05 to 0.5 |  | +++ (+++=>70%) | 30 to 70 | C[C@@H]1CCN(c2cc(-c3ccccc3O)nnc2N)CCN1c1ccnc(C#CCn2cncn2)c1 [Compound P-424, 0-{5-[(R)-5-methyl-4-{2-[3-(1H-1,2,4-triazol-1-yl)-1-propynyl]-4-pyridyl}-1,4-diazepan-1-yl]-6-amino-3-pyridaziny1} phenol]
7 | 0.05 to 0.5 | ++ (++=30-70%) | 0.05 to 0.5 | < 30 |  |  | C[C@@H]1CCN(c2cc(-c3ccccc3O)nnc2N)CCN1c1ccnc(C#CCN2CCOCC2)n1 [Compound P-334, 0-(5-{(R)-5-methyl-4-[2-(3-morpholino-1-propynyl)-4-pyrimidinyl]-1,4-diazepan-1-yl}-6-amino-3-pyridazinyl)phenol]
8 | 0.05 to 0.5 | ++ (++=30-70%) | < 0.05 | < 30 |  |  | CNCC#Cc1nccc(N2CCN(c3cc(-c4ccccc4O)nnc3N)[C@@H](C)C2)n1 [Compound P-292, 0-{5-[(S)-2-methyl-4-{2-[3-(methylamino)-1-propynyl]-4-pyrimidinyl}-1-pipcrazinyl]-6-amino-3-pyridaziny1} phenol]
9 | < 0.05 | +++ (+++=>70%) | 0.05 to 0.5 | 30 to 70 |  |  | Cc1cnc(C#CCN(C)C)nc1N1CCN(c2cc(-c3ccccc3O)nnc2N)CC[C@H]1C [Compound P-229, o-{5-[(R)-4-{2-[3-(dimethylamino)-1-propynyl]-5-methyl-4-pyrimidinyl}-5-methyl-1,4-diazepan-1-yl]-6-amino-3-pyridaziny1}phenol]
10 | 0.05 to 0.5 | ++ (++=30-70%) | 0.05 to 0.5 | 30 to 70 |  |  | C[C@H]1COC[C@H](C)N1CC#Cc1nccc(N2CCCN(c3cc(-c4ccccc4O)nnc3N)CC2)n1 [Compound P-305, 0-{5-[4-(2-{3-[(3S,5S)-3,5-dimethyl-4-morpholinyl]-1-propynyl}-4-pyrimidinyl)-1,4-diazepan-1-yl]-6-amino-3-pyridazinyl}phenol]
11 | 0.5 to 5 | + (+=<30%) | 0.5 to 5 | < 30 |  |  | NCC#Cc1nccc(N2CCC3(CCCN(c4cc(-c5ccccc5O)nnc4N)C3)CC2)n1 [Compound P-89, 2-(6-amino-5-(9-(2-(3-aminoprop-1-yn-1-yl)pyrimidin-4-yl)-2,9-diazaspiro[5.5]undecan-2-yl)pyridazin-3-yl)phenol]
12 | 0.5 to 5 | ++ (++=30-70%) | 0.05 to 0.5 | 30 to 70 |  |  | Nc1nnc(-c2ccccc2O)cc1N1CCCC2C1CCN2c1ccnc(C#CCNC(=O)c2cc3ncccn3n2)n1 (stereo not drawn) [Compound P-79, N-(3-(4-(4-(3-amino-6-(2-hydroxyphenyl)pyridazin-4-yl)octahydro-1H-pyrrolo[3,2-b]pyridin-1-yl)pyrimidin-2-yl)prop-2-yn-1-yl)pyrazolo[1,5-a]pyrimidine-2-carboxamide]
13 | 0.05 to 0.5 |  | 0.05 to 0.5 |  | ++ (++=30-70%) | 30 to 70 | C[C@@H]1CCN(c2cc(-c3ccccc3O)nnc2N)CCN1c1ccnc(C#CCN2CCOCC2)c1 [Compound P-426, 0-(5-{(R)-5-methyl-4-[2-(3-morpholino-1-propynyl)-4-pyridyl]-1,4-diazepan-1-yl}-6-amino-3-pyridazinyl)phenol]
14 | 0.05 to 0.5 | ++ (++=30-70%) | 0.05 to 0.5 | 30 to 70 |  |  | C[C@@H]1CCN(c2cc(-c3ccccc3O)nnc2N)CCN1c1ccnc(C#CCN2CCC(F)(F)C2)n1 [Compound P-243, o-{5-[(R)-4-{2-[3-(3,3-difluoro-1-pyrrolidinyl)-1-propynyl]-4-pyrimidinyl}-5-methyl-1,4-diazepan-1-yl]-6-amino-3-pyridazinyl} phenol]
15 | 0.05 to 0.5 | +++ (+++=>70%) | 0.05 to 0.5 | 30 to 70 |  |  | Nc1nnc(-c2ccccc2O)cc1N1CCCN(c2ccnc(C#CCn3ccnn3)n2)CC1 [Compound P-144, 2-(5-(4-(2-(3-(1H-1,2,3-triazol-1-yl)prop-1-yn-1-yl)pyrimidin-4-yl)-1,4-diazepan-1-yl)-6-aminopyridazin-3-yl)phenol]
16 | 0.05 to 0.5 | ++ (++=30-70%) | 0.05 to 0.5 | < 30 |  |  | C[C@@H]1CCN(c2cc(-c3ccccc3O)nnc2N)CCN1c1ccnc(C#CCN2CC(F)C2)n1 [Compound P-230, o-{5-[(R)-4-{2-[3-(3-fluoro-1-azetidinyl)-1-propynyl]-4-pyrimidinyl}-5-methyl-1,4-diazepan-1-y1]-6-amino-3-pyridaziny1}phenol]
17 | < 0.05 | ++ (++=30-70%) | < 0.05 | < 30 |  |  | C[C@H]1CN(c2ccnc(C#CCN3CCCCC3)n2)CCN1c1cc(-c2ccccc2O)nnc1N [Compound P-319, 0-(5-{(S)-2-methyl-4-[2-(3-piperidino-1-propynyl)-4-pyrimidinyl]-1-piperazinyl}-6-amino-3-pyridazinyl)phenol]
18 | 0.05 to 0.5 | ++ (++=30-70%) | 0.05 to 0.5 | 30 to 70 |  |  | CC(=O)N(C)C/C=C/c1nccc(N2CCN(c3cc(-c4ccccc4O)nnc3N)CC[C@H]2C)n1 [Compound P-153, N-[3-(4-{(R)-4-[3-amino-6-(o-hydroxyphenyl)-4-pyridazinyl]-7-methyl-1,4-diazepan-1-yl}-2-pyrimidinyl)-2-propenyl]-N-methylacetamide]
19 | < 0.05 | +++ (+++=>70%) | 0.05 to 0.5 | 30 to 70 |  |  | Nc1nnc(-c2ccccc2O)cc1N1CCCN(c2ccnc(C#CCn3ccn4nccc4c3=O)n2)CC1 [Compound P-109, 5-(3-(4-(4-(3-amino-6-(2-hydroxyphenyl)pyridazin-4-yl)-1,4-diazepan-1-yl)pyrimidin-2-yl)prop-2-yn-1-yl)pyrazolo[1,5-a]pyrazin-4(5H)-one]
20 | 0.05 to 0.5 | + (+=<30%) | > 5 |  |  |  | CC(=O)NCC#Cc1nccc(N2CCN(c3cc(-c4ccccc4O)nnc3N)CC2)n1 [Compound P-68, N-(3-(4-(4-(3-amino-6-(2-hydroxyphenyl)pyridazin-4-yl)piperazin-1-yl)pyrimidin-2-yl)prop-2-yn-1-yl)acetamide]
21 | 0.5 to 5 | ++ (++=30-70%) | 0.5 to 5 | < 30 |  |  | C[C@@H]1CCN(c2cc(-c3ccccc3O)nnc2N)CCN1c1nc(C#CCO)ncc1F [Compound P-207, o-(5-{(R)-4-[5-fluoro-2-(3-hydroxy-1-propynyl)-4-pyrimidinyl]-5-methyl-1,4-diazepan-1-yl}-6-amino-3-pyridazinyl)phenol]

Row | SMILES | DC50 [1] [µM] | SMARCA2 % Degradation @ 1 μM ([1]; @ 1 μM) | DC50 [2] [µM] | inhibition at 1 µM ([2]; @ 1 μM) [%] | SMARCA2 % Degradation @ 1 μM ([1]; 1 μM) | inhibition at 1 µM ([2]; 1 μM) [%]
22 | CN(C)CC#Cc1cc(N2C3CCC2CN(c2cc(-c4ccccc4O)nnc2N)CC3)ccn1 (stereo not drawn) [Compound P-382, 0-[6-amino-5-(9-{2-[3-(dimethylamino)-1-propynyl]-4-pyridyl}-3,9-diazabicyclo[4.2.1]non-3-y1)-3-pyridazinyl]phenol] | < 0.05 |  | < 0.05 |  | +++ (+++=>70%) | > 70
